Patent publication US11479587B2, “Cationic intrinsically disordered antimicrobial peptides” (priority 2016, dated 2022)
“And” between values parts separate entries of the source, which are not always exact repeats. Equal entries are not always repeated. Residues, ends and D or L forms follow the SMILES beside them. Primed or numbered codes have the meaning given here. No end group written: not given here. *: point of attachment. FITC′ = fluorescein isothiocyanate; Palmitoyl = CCCCCCCCCCCCCCCC(=O)*

What was measured:
[1] = test system: C. neoformans
[2] = test system: methicillin-resistant S. aureus strain (ATCC 43300); type: cell-based, Staphylococcus aureus; details: ATCC 43300, 18 h
Protocol: Furthermore, sensitivity of a methicillin-resistant S. aureus strain (ATCC 43300) was investigated for palmitoylated CIDAMPs in a microtiter plate screening model, with incubation in Mueller-Hinton medium at 37° C. for 18 h using resazurin as a marker for cell viability.
A sample of each culture was then diluted 40-fold in fresh broth and incubated at 37° C. for 1.5-3 h. […] All the plates were covered and incubated at 37° C. for 18 h.
Inhibition of bacterial growth was determined using resazurin as a marker for cell viability. Resazurin was added to each well, at 0.001% final concentration, and plates incubated at 37° C. for 2 h. Fluorescence intensity was measured, using F (top read), ex 560/10 nm, em 590/10 nm, using a Tecan M1000 Pro monochromator plate reader.

[3] = Hemolysis assay; type: cell-based
Protocol: For the hemolysis assays EDTA-blood was centrifuged at 800×g for 10 min, and the plasma and buffy coat were removed. The erythrocytes were washed three times and resuspended in 5% PBS, pH 7.4. The cells were then incubated with end-over-end rotation for 1 h at 37° C. in the presence of different concentrations of peptides (0, 3, 10, 30, 60 μm). 0.1% Triton X-100 (Sigma-Aldrich) served as positive control. The samples were then centrifuged at 800×g for 10 min.
The absorbance of hemoglobin release was measured at 540 nm and is expressed as % of Triton X-100-induced hemolysis. These values of triplicates were plotted with Graph Pad Prism 4 as a dose response curve and the CC50 was determined.

[4] = test system: C. albicans ATCC 928
[5] = Cytotoxicity (resazurin) assay
Protocol: For the cytotoxicity (resazurin) assay, HEK293 cells were counted manually in a Neubauer haemocytometer and plated at a density of 4000 cells/well into each well of the 384-well plates containing the 25×(2 μl) concentrated compounds. The medium used was Dulbecco's modified eagle medium (DMEM) supplemented with 10% foetal bovine serum (FBS). Cells were incubated together with the compounds for 20 h at 37° C., 5% CO2. To measure cytotoxicity, 5 μl (equals 100 μM final) resazurin was added to each well after incubation, and incubated for further 3 h at 37° C. with 5% CO2.
After final incubation fluorescence intensity was measured as F ex 560/10 nm, em 590/10 nm (F560/590) using a Tecan M1000 Pro monochromator plate reader. […] The concentration dependent percentage cytotoxicity was fitted to a dose response function (using Pipeline Pilot) and CC50 values determined.

[6] = test system: Candida albicans ATCC 24433; experiment: CFU-assay, Candida albicans-cidal activity; type: cell-based; details: pH 5.5, 0.25% glucose
Protocol: Thus, within the present invention, the antimicrobial activity is generally measured in nutrient deficient 10 mM sodium phosphate buffer pH 5.5, containing 0.25% glucose, using the CFU-assay according to Steinberg and Lehrer, 1997 (supra), unless otherwise indicated. The CFU-assay allows determination of the minimal bactericidal concentration (MBC, e.g., MBC90 and MBC100; i.e. the concentration of compound required to achieve a specified reduction in bacterial cell number (microbial death or killing)). […]
HR 1-17 affects C. albicans ATCC 24433 with highest activity at pH 5.5 in the absence of TSB in the medium (see Tables 12, 24). […] Furthermore, the substitution of any of the Arg residues by Gly leads to a dramatic reduction or loss of candidacidal activity (see Table 24).

[7] = test system: P. aeruginosa ATCC 10145; experiment: CFU-assay, P. aeruginosa-cidal activity; type: cell-based, Pseudomonas aeruginosa
[8] = test system: S. aureus ATCC 6538; experiment: CFU-assay, S. aureus-cidal activity; type: cell-based, Staphylococcus aureus; details: pH 5.5, 0.25% glucose
Protocol: Thus, within the present invention, the antimicrobial activity is generally measured in nutrient deficient 10 mM sodium phosphate buffer pH 5.5, containing 0.25% glucose, using the CFU-assay according to Steinberg and Lehrer, 1997 (supra), unless otherwise indicated. The CFU-assay allows determination of the minimal bactericidal concentration (MBC, e.g., MBC90 and MBC100; i.e. the concentration of compound required to achieve a specified reduction in bacterial cell number (microbial death or killing)).
Various peptides corresponding to repeat domains of hornerin (HR 1-11: HRNR 2606-2628; HR 1-17: HRNR 2656-2684 and HR 1-18: HRNR 2656-2677) were tested for P. aeruginosa ATCC 10145-cidal activity in 10 mM Na-phosphate buffer pH 5.5, containing 0.25% glucose by counting the numbers of colonies of surviving bacteria at serial, twofold dilutions from 300 μg/ml down to 19 ng/ml of each peptide (CFU-assay; Steinberg and Lehrer, 1997, Methods Mol. Biol. 78, 169-186).
Staphylococcus aureus is a major skin pathogen, which causes skin infections, in particular in atopic dermatitis. The sensitivity of S. aureus ATCC 6538 towards several CIDAMPs was assessed using the CFU-assay as above (see Example 1). HR 1-18, which lacks S. aureus.-bactericidal activity, is converted in a S. aureus-cidal peptide, when all His are replaced by Arg (HR 1-18 4H-4R; see Table 13 and FIG. 9). […] HR 1-18 4H-4R is rich in Ser and Arg and contains a single Leu residue. When this single Leu was replaced by Gly in S. aureus-cidal HR 1-18 4H-4R (forming HR 1-18 4H-4R/L-G), S. aureus-cidal activity was abolished at both pH 7.0 and pH 5.5 (see Table 13 and FIG. 9).

[9] = test system: Burkholderia cepacia ATCC 25416; experiment: CFU-assay, Burkholderia cepacia-cidal activity; type: cell-based
[10] = standard conditions at pH 7.4, activity at concentration <32 pg/ml

Compound | MIC, C. neoformans ATCC 208821 [1] [µg/mL] | MIC, S. aureus ATCC 43300 [2] [µg/mL] | MBC90 [6] [µg/mL] | MBC100 [6] [µg/mL] | MBC90 ([7]; pH 5.0, 0.25% glucose) [µg/mL] | MBC100 ([7]; pH 5.0, 0.25% glucose) [µg/mL] | MBC90 [8] [µg/mL] | MBC100 [8] [µg/mL] | MBC100 ([7]; pH 5.5, 0.25% glucose) | other results
CCCCCCCCCCCCCCCC(=O)N[C@@H](CO)C(=O)N[C@@H](Cc1c[nH]cn1)C(=O)N[C@@H](Cc1c[nH]cn1)C(=O)N[C@@H](CCCNC(=N)N)C(=O)N[C@@H](Cc1c[nH]cn1)C(=O)N[C@@H](Cc1ccccc1)C(=O)N[C@@H](CCCNC(=N)N)C(=O)N[C@@H](CO)C(=O)N[C@@H](Cc1c[nH]cn1)C(=O)N[C@@H](CCC(N)=O)C(=O)N[C@@H](CS)C(=O)N[C@@H](CCCNC(=N)N)C(=O)N[C@@H](CCCNC(=N)N)C(=O)O [Pal-LCE3C55-67] (HELM PEPTIDE1{[CCCCCCCCCCCCCCCC(=O)[*:2]].S.H.H.R.H.F.R.S.H.Q.C.R.R}$$$$V2.0) | ≥1 | ≥32 | – | – | – | – | – | – | – | HC50 [3]: > 100 µg/mL; MIC, C. albicans ATCC 90028 ([4]; ATCC 928): ≥16 µg/mL; MIC ([4]; ATCC 928, 18 h, pH 7.4): 1 to 32 µg/mL; CC50 [5]: > 32 µg/mL
FITC-GRHGSGLGHSSSHGQHGSGSGR ({FITC′}-GRHGSGLGHSSSHGQHGSGSGR) [FITC-HR 1-18] | – | – | 2.35 | 75 | 0.15 | 1.18 | 300 | >300 | – | –
GRRGGGGGRGGGRGGRGGGGGR (Modified peptide derived from human hornerin (HR 1-18 GR)) | – | – | – | – | <0.019 | 0.075 | >300 | >300 | 0.075 μg/ml and 0.04 μM | Antifungal activity, C. neoformans ATCC 208821 [1, 10]: I (I-inactive); Antifungal activity, C. albcans ATCC90028 [4, 10]: I (I-inactive); MBC90 ([7]; pH 5.5, 0.25% glucose): <6 nM
HGSRSGQSSRGERHGSSSGSSSH (Peptide derived from human hornerin (HR 1-11)) | – | – | 9.38 | 150 | 0.075 | 2.35 | – | – | 2.35 µg/mL | MBC90 ([7]; pH 5.5, 1% TSB): 2.35 µg/mL; MBC100 ([7]; pH 5.5, 1% TSB): >300 µg/mL
Pal-GRRGSGLGRSSSRGGRGSGSGR (Palmitoyl-GRRGSGLGRSSSRGGRGSGSGR) [Pal-HR 1-18 4H-4R] | – | – | – | – | – | – | – | – | – | MBC90 ([9]; pH 7.3, 0.25% glucose): 75 µg/mL; MBC100 ([9]; pH 7.3, 0.25% glucose): 300 µg/mL; MBC90 ([9]; pH 7.3, 1% TSB): 75 µg/mL; MBC100 ([9]; pH 7.3, 1% TSB): 150 µg/mL
SHHRHFRSHQCRR [LCE3C55 67] | ≥8 | ≥32 | – | – | – | – | – | – | – | –
